Experimental data taken from patent US8802597B2, “Herbicidal pyrimidines” (E I du Pont de Nemours and Company, priority 2003, dated 2014).

Assays:
Experiment in all cases: Test C pre/postemergence
Assay type in all cases: in vivo
[1] = tested on: cocklebur (Xanthium strumarium); conditions: for Cocklebur plant response rating: scale 0 to 100 (0 no effect, 100 complete control)
In short: (§1)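 Seeds sown and sprayed preemergence with test compound in non-phytotoxic solvent containing surfactant; postemergence sprays, same formulation, went onto plants 2 to 18 cm tall (1- to 4-leaf stage). Plants held in greenhouse 12 to 14 days, then visually rated against untreated controls on a 0–100 scale (0 no effect, 100 complete control).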

[2] = tested on: common (oilseed) sunflower (Helianthus annuus); conditions: Preemergence
In short: as §1

[3] = tested on: common ragweed (Ambrosia elatior); conditions: for Ragweed plant response rating: scale 0 to 100 (0 no effect, 100 complete control)
In short: as §1

[4] = tested on: crabgrass (Digitaria sanguinalis); conditions: for Crabgrass plant response rating: scale 0 to 100 (0 no effect, 100 complete control)
In short: as §1

[5] = tested on: eastern black nightshade (Solanum ptycanthum); conditions: Preemergence
In short: as §1

[6] = tested on: giant foxtail (Setaria faberii); conditions: for Foxtail, Giant plant response rating: scale 0 to 100 (0 no effect, 100 complete control)
In short: as §1

kochia (Kochia scoparia) = conditions: for Kochia plant response rating: scale 0 to 100 (0 no effect, 100 complete control)
In short: as §1

[7] = tested on: morningglory (Ipomoea coccinea); conditions: for Morningglory plant response rating: scale 0 to 100 (0 no effect, 100 complete control)
In short: as §1

[8] = tested on: pigweed (Amaranthus retroflexus); conditions: for Pigweed plant response rating: scale 0 to 100 (0 no effect, 100 complete control)
In short: as §1

[9] = tested on: velvetleaf (Abutilon theophrasti); conditions: for Velvetleaf plant response rating: scale 0 to 100 (0 no effect, 100 complete control)
In short: as §1

[10] = tested on: woolly cupgrass (Eriochloa villosa); conditions: for Cupgrass, Woolly plant response rating: scale 0 to 100 (0 no effect, 100 complete control)
In short: as §1

[11] = tested on: yellow nutsedge (Cyperus esculentus); conditions: for Nutsedge, Yellow plant response rating: scale 0 to 100 (0 no effect, 100 complete control)
In short: as §1

[12] = Postemergence, 250 g ai/ha, scale 0 to 100
[13] = Postemergence, 500 g ai/ha, scale 0 to 100
[14] = Preemergence, 62 g ai/ha, scale 0 to 100, 0 no effect, 100 complete control
[15] = Preemergence, 125 g ai/ha, scale 0 to 100
[16] = Preemergence, 250 g ai/ha, scale 0 to 100
[17] = Preemergence, 500 g ai/ha, scale 0 to 100
[18] = 62 g ai/ha, scale 0 to 100, 0 no effect, 100 complete control

CNN=Cc1nc(C2CC2)nc(N)c1Br [Compound 49]
Cocklebur plant response rating ([1]; Postemergence, 62 g ai/ha): 75
Cocklebur plant response rating ([1]; Postemergence, 125 g ai/ha): 95
Plant response rating, Cocklebur [1, 12]: 95
Plant response rating, Cocklebur [1, 13]: 95
Plant response rating, Cocklebur [1, 14]: 20
Plant response rating, Cocklebur [1, 15]: 95
Plant response rating, Cocklebur [1, 16]: 95
Plant response rating, Cocklebur [1, 17]: 100
Plant response rating, Sunflower [2, 18]: 15
Plant response rating, Sunflower ([2]; 125 g ai/ha, scale 0 to 100): 75
Plant response rating, Sunflower ([2]; 250 g ai/ha, scale 0 to 100): 100
Plant response rating, Sunflower ([2]; 500 g ai/ha, scale 0 to 100): 100
Ragweed plant response rating ([3]; Postemergence, 62 g ai/ha): 45
Ragweed plant response rating ([3]; Postemergence, 125 g ai/ha): 65
Plant response rating, Ragweed [3, 12]: 75
Plant response rating, Ragweed [3, 13]: 90
Plant response rating, Ragweed [3, 14]: 70
Plant response rating, Ragweed [3, 15]: 100
Plant response rating, Ragweed [3, 16]: 100
Plant response rating, Ragweed [3, 17]: 100
Crabgrass plant response rating ([4]; Postemergence, 62 g ai/ha): 0
Crabgrass plant response rating ([4]; Postemergence, 125 g ai/ha): 65
Plant response rating, Crabgrass [4, 12]: 75
Plant response rating, Crabgrass [4, 13]: 95
Plant response rating, Crabgrass [4, 14]: 95
Plant response rating, Crabgrass [4, 15]: 95
Plant response rating, Crabgrass [4, 16]: 95
Plant response rating, Crabgrass [4, 17]: 100
Plant response rating, Nightshade [5, 18]: 95
Plant response rating, Nightshade ([5]; 125 g ai/ha, scale 0 to 100): 100
Plant response rating, Nightshade ([5]; 250 g ai/ha, scale 0 to 100): 100
Plant response rating, Nightshade ([5]; 500 g ai/ha, scale 0 to 100): 100
Foxtail, Giant plant response rating ([6]; Postemergence, 62 g ai/ha): 0
Foxtail, Giant plant response rating ([6]; Postemergence, 125 g ai/ha): 0
Plant response rating, Foxtail, Giant [6, 12]: 0
Plant response rating, Foxtail, Giant [6, 13]: 0
Plant response rating, Foxtail, Giant [6, 14]: 0
Plant response rating, Foxtail, Giant [6, 15]: 0
Plant response rating, Foxtail, Giant [6, 16]: 0
Plant response rating, Foxtail, Giant [6, 17]: 65
Kochia plant response rating (kochia (Kochia scoparia); Postemergence, 62 g ai/ha): 20
Kochia plant response rating (kochia (Kochia scoparia); Postemergence, 125 g ai/ha): 45
Plant response rating, Kochia (kochia (Kochia scoparia); [12]): 95
Plant response rating, Kochia (kochia (Kochia scoparia); [13]): 100
Plant response rating, Kochia (kochia (Kochia scoparia); [14]): 100
Plant response rating, Kochia (kochia (Kochia scoparia); [15]): 100
Plant response rating, Kochia (kochia (Kochia scoparia); [16]): 100
Plant response rating, Kochia (kochia (Kochia scoparia); [17]): 100
Morningglory plant response rating ([7]; Postemergence, 62 g ai/ha): 50
Morningglory plant response rating ([7]; Postemergence, 125 g ai/ha): 70
Plant response rating, Morningglory [7, 12]: 80
Plant response rating, Morningglory [7, 13]: 100
Plant response rating, Morningglory [7, 14]: 90
Plant response rating, Morningglory [7, 15]: 95
Plant response rating, Morningglory [7, 16]: 100
Plant response rating, Morningglory [7, 17]: 100
Pigweed plant response rating ([8]; Postemergence, 62 g ai/ha): 65
Pigweed plant response rating ([8]; Postemergence, 125 g ai/ha): 80
Plant response rating, Pigweed [8, 12]: 95
Plant response rating, Pigweed [8, 13]: 95
Plant response rating, Pigweed [8, 14]: 85
Plant response rating, Pigweed [8, 15]: 90
Plant response rating, Pigweed [8, 16]: 100
Plant response rating, Pigweed [8, 17]: 100
Velvetleaf plant response rating ([9]; Postemergence, 62 g ai/ha): 45
Velvetleaf plant response rating ([9]; Postemergence, 125 g ai/ha): 70
Plant response rating, Velvetleaf [9, 12]: 75
Plant response rating, Velvetleaf [9, 13]: 80
Plant response rating, Velvetleaf [9, 14]: 15
Plant response rating, Velvetleaf [9, 15]: 70
Plant response rating, Velvetleaf [9, 16]: 90
Plant response rating, Velvetleaf [9, 17]: 100
Cupgrass, Woolly plant response rating ([10]; Postemergence, 62 g ai/ha): 0
Cupgrass, Woolly plant response rating ([10]; Postemergence, 125 g ai/ha): 15
Plant response rating, Cupgrass, Woolly [10, 12]: 60
Plant response rating, Cupgrass, Woolly [10, 13]: 65
Plant response rating, Cupgrass, Woolly [10, 14]: 0
Plant response rating, Cupgrass, Woolly [10, 15]: 0
Plant response rating, Cupgrass, Woolly [10, 16]: 20
Plant response rating, Cupgrass, Woolly [10, 17]: 25
Nutsedge, Yellow plant response rating ([11]; Postemergence, 62 g ai/ha): 0
Nutsedge, Yellow plant response rating ([11]; Postemergence, 125 g ai/ha): 0
Plant response rating, Nutsedge, Yellow [11, 12]: 0
Plant response rating, Nutsedge, Yellow [11, 13]: 0
Plant response rating, Nutsedge, Yellow [11, 14]: 0
Plant response rating, Nutsedge, Yellow [11, 15]: 0
Plant response rating, Nutsedge, Yellow [11, 16]: 0
Plant response rating, Nutsedge, Yellow [11, 17]: 0

CN(C)N=Cc1nc(C2CC2)nc(N)c1Br [Compound 50]
Cocklebur plant response rating ([1]; Postemergence, 62 g ai/ha): 40
Cocklebur plant response rating ([1]; Postemergence, 125 g ai/ha): 40
Plant response rating, Cocklebur [1, 12]: 65
Plant response rating, Cocklebur [1, 13]: 90
Plant response rating, Cocklebur [1, 14]: 70
Plant response rating, Cocklebur [1, 15]: 85
Plant response rating, Cocklebur [1, 16]: 95
Plant response rating, Cocklebur [1, 17]: 95
Plant response rating, Sunflower [2, 18]: 15
Plant response rating, Sunflower ([2]; 125 g ai/ha, scale 0 to 100): 55
Plant response rating, Sunflower ([2]; 250 g ai/ha, scale 0 to 100): 95
Plant response rating, Sunflower ([2]; 500 g ai/ha, scale 0 to 100): 100
Ragweed plant response rating ([3]; Postemergence, 62 g ai/ha): 20
Ragweed plant response rating ([3]; Postemergence, 125 g ai/ha): 45
Plant response rating, Ragweed [3, 12]: 45
Plant response rating, Ragweed [3, 13]: 80
Plant response rating, Ragweed [3, 14]: 70
Plant response rating, Ragweed [3, 15]: 85
Plant response rating, Ragweed [3, 16]: 95
Plant response rating, Ragweed [3, 17]: 100
Crabgrass plant response rating ([4]; Postemergence, 62 g ai/ha): 60
Crabgrass plant response rating ([4]; Postemergence, 125 g ai/ha): 60
Plant response rating, Crabgrass [4, 12]: 75
Plant response rating, Crabgrass [4, 13]: 80
Plant response rating, Crabgrass [4, 14]: 90
Plant response rating, Crabgrass [4, 15]: 90
Plant response rating, Crabgrass [4, 16]: 95
Plant response rating, Crabgrass [4, 17]: 95
Plant response rating, Nightshade [5, 18]: 95
Plant response rating, Nightshade ([5]; 125 g ai/ha, scale 0 to 100): 100
Plant response rating, Nightshade ([5]; 250 g ai/ha, scale 0 to 100): 100
Plant response rating, Nightshade ([5]; 500 g ai/ha, scale 0 to 100): 100
Foxtail, Giant plant response rating ([6]; Postemergence, 62 g ai/ha): 0
Foxtail, Giant plant response rating ([6]; Postemergence, 125 g ai/ha): 0
Plant response rating, Foxtail, Giant [6, 12]: 0
Plant response rating, Foxtail, Giant [6, 13]: 20
Plant response rating, Foxtail, Giant [6, 14]: 0
Plant response rating, Foxtail, Giant [6, 15]: 0
Plant response rating, Foxtail, Giant [6, 16]: 0
Plant response rating, Foxtail, Giant [6, 17]: 70
Kochia plant response rating (kochia (Kochia scoparia); Postemergence, 62 g ai/ha): 20
Kochia plant response rating (kochia (Kochia scoparia); Postemergence, 125 g ai/ha): 55
Plant response rating, Kochia (kochia (Kochia scoparia); [12]): 65
Plant response rating, Kochia (kochia (Kochia scoparia); [13]): 95
Plant response rating, Kochia (kochia (Kochia scoparia); [15]): 0
Plant response rating, Kochia (kochia (Kochia scoparia); [16]): 20
Plant response rating, Kochia (kochia (Kochia scoparia); [17]): 90
Morningglory plant response rating ([7]; Postemergence, 62 g ai/ha): 65
Morningglory plant response rating ([7]; Postemergence, 125 g ai/ha): 80
Plant response rating, Morningglory [7, 12]: 85
Plant response rating, Morningglory [7, 13]: 95
Plant response rating, Morningglory [7, 14]: 80
Plant response rating, Morningglory [7, 15]: 95
Plant response rating, Morningglory [7, 16]: 95
Plant response rating, Morningglory [7, 17]: 100
Pigweed plant response rating ([8]; Postemergence, 62 g ai/ha): 75
Pigweed plant response rating ([8]; Postemergence, 125 g ai/ha): 80
Plant response rating, Pigweed [8, 12]: 85
Plant response rating, Pigweed [8, 13]: 95
Plant response rating, Pigweed [8, 14]: 75
Plant response rating, Pigweed [8, 15]: 90
Plant response rating, Pigweed [8, 16]: 95
Plant response rating, Pigweed [8, 17]: 100
Velvetleaf plant response rating ([9]; Postemergence, 62 g ai/ha): 50
Velvetleaf plant response rating ([9]; Postemergence, 125 g ai/ha): 55
Plant response rating, Velvetleaf [9, 12]: 70
Plant response rating, Velvetleaf [9, 13]: 80
Plant response rating, Velvetleaf [9, 14]: 65
Plant response rating, Velvetleaf [9, 15]: 75
Plant response rating, Velvetleaf [9, 16]: 85
Plant response rating, Velvetleaf [9, 17]: 100
Cupgrass, Woolly plant response rating ([10]; Postemergence, 62 g ai/ha): 0
Cupgrass, Woolly plant response rating ([10]; Postemergence, 125 g ai/ha): 0
Plant response rating, Cupgrass, Woolly [10, 12]: 15
Plant response rating, Cupgrass, Woolly [10, 13]: 30
Plant response rating, Cupgrass, Woolly [10, 14]: 0
Plant response rating, Cupgrass, Woolly [10, 15]: 0
Plant response rating, Cupgrass, Woolly [10, 16]: 0
Plant response rating, Cupgrass, Woolly [10, 17]: 40
Nutsedge, Yellow plant response rating ([11]; Postemergence, 62 g ai/ha): 0
Nutsedge, Yellow plant response rating ([11]; Postemergence, 125 g ai/ha): 0
Plant response rating, Nutsedge, Yellow [11, 12]: 0
Plant response rating, Nutsedge, Yellow [11, 13]: 0
Plant response rating, Nutsedge, Yellow [11, 14]: 0
Plant response rating, Nutsedge, Yellow [11, 15]: 0
Plant response rating, Nutsedge, Yellow [11, 16]: 0
Plant response rating, Nutsedge, Yellow [11, 17]: 0
